Reference: US20140275224A1, “CYTOSINE DEAMINASE MODULATORS FOR ENHANCEMENT OF DNA TRANSFECTION” (Regents of the University of Minnesota, priority 2010, published 2014)

Key:
[1] = molecular target: E. Coli uracil-DNA glycosylase (Escherichia coli, UniProt P12295); experiment: control assay with UDG (U-containing oligos, without A3s); type: biochemical; details: specificity control, FIG. 2C
From the text: All newly synthesized compounds can be tested in dose response experiments against recombinant A3A and A3G to identify the sub-library_compounds that have dual-inhibitory activity like the parental molecules.
These initial experiments can also identify the subset with improved IC50 values. Second, all confirmed inhibitors can be tested against the other five recombinant human A3 proteins (A3BCDEFH) to identify broader-spectrum inhibitors. Third, reactions can be performed with U-containing oligos and UDG (i.e., without A3s) to re-confirm that all new inhibitors have not become general enzyme inhibitors. These assays can be carried out in 96 or 384 well plate formats. HEK-293T cells were transfected with an A3A expression plasmid, and total cell extracts were used in DNA deaminase assays. Non-transfected or A3A-E72A catalytic mutant transfected cell extracts show no activity (28).

[2] = tested on: A3 DNA deaminase (A3A or A3G); experiment: fluorescence-based DNA deamination assay, high-throughput screening; type: biochemical, human; details: 10 μM library compound, inhibitors inhibit the reaction by 50% or more and reproduce in dose response
From the text: MN132, MN137, MN141, and MN152 are a few exemplary molecules identified from high-throughput screening. To screen for inhibitors of A3A or A3G DNA cytosine deaminase activity, a previously described fluorescence-based assay has been modified, optimized, and miniaturized (FIG. 2A) (30). C-to-U by A3A or A3G creates a substrate uracil that is excised by UDG, and the resulting abasic site is attacked by hydroxide to release 6-FAM fluorescence from the TAMRA quench. Recombinant A3A- or A3G-myc-His purified from a HEK-293-based cell line is incubated with uracil DNA glycosylase (UDG), 10 μM library compound (or a DMSO control), and a cytosine-containing, single-stranded DNA substrate attached to a 5′ 6-FAM fluorescent tag and a 3′ TAMRA quench molecule. During a 2 hr incubation period, the A3 protein deaminates 5′-C-to-U and UDG excises the uracil to leave an abasic site. DNA cleavage by NaOH produces a fluorescent signal by releasing the 6-FAM fluorophore from the TAMRA quench. This assay is highly sensitive and reproducible (A3G Z score=0.86 and A3A Z score=0.88 on the University of Minnesota ITDD HTS platform). […]
Protocols were developed for purification of A3-myc-His proteins from HEK-293 cells. […] High (80-90%) purity is achieved routinely, and all proteins show robust activity in our fluorescence-based C-to-U deaminase assay as shown in FIGS. 4C and 4D.

A3A = molecular target: T1, A3A (Homo sapiens, UniProt P31941); experiment: DNA deaminase assay in A3A-expressing HEK-293T cell extracts; type: biochemical; details: A3A-transfected HEK-293T total cell extracts, compared with recombinant protein, FIG. 5
T1 construct: expressed in transfected cells; host or cells: HEK-293T
T1 sequence (P31941 whole entry): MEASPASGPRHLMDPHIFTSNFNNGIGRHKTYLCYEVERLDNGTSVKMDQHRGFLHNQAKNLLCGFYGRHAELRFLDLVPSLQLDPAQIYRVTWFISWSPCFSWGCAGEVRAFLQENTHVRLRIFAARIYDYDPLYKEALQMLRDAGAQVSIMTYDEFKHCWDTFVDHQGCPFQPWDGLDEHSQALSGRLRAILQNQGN
Method: Like the recombinant protein assay described above, assays with A3-containing cell extracts are done in 96 and 384 well formats and the read-out is relative fluorescence units.
The deaminase activity in the lysates was determined using a FRET-based assay essentially as described^59. […] FRET occurs between the fluorophores, decreasing FAM fluorescence. If cytidine deaminase activity is present in the lysates, the single cytidine is converted to uridine, which is then excised by uracil DNA glycosylase (NEB). Resulting abasic sites are cleaved by incubating reactions for 2 min at 95° C. Once cleaved, the FAM and TAMRA labels are physically separated, FRET diminishes, and FAM fluorescence increases. Fluorescence is measured on the Lightcycler 480 instrument (Roche).

primary human monocytes = primary human monocytes nucleofected with a GFP expression vector; type: cell-based; details: 3 days post-transfection, flow cytometry, versus DMSO (not detectably transfected), FIG. 7B
From the text: Primary human monocytes were purified by negative selection and nucleofected with a GFP expression vector. Since these cells naturally express A3A, transfection with A3A expression plasmids was not necessary. The pool of transfected cells was split into wells containing media plus vehicle control or MN132. A variety of different cell lines (lymphoid, liver, breast, brain, epithelial, and colorectal origins) and distinct primary white blood cell types (T, B, monocyte, neutrophil, etc.) can be used in these experiments to test the central hypothesis that the endogenous A3s constitute a general barrier to foreign DNA and genetic engineering.

E. Coli uracil-DNA glycosylase, sequence (P12295 whole entry): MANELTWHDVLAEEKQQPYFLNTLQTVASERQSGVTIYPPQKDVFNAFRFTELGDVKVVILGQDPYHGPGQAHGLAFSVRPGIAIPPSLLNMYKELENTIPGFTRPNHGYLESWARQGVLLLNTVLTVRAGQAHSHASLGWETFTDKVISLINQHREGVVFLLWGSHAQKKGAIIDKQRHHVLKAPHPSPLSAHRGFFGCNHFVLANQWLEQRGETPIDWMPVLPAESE

| Structure (SMILES) | block of UDG [1] | inhibition of A3 DNA deaminase activity in vitro [2] | IC50 values in cell extracts (A3A) | percentage of cells expressing GFP (primary human monocytes) |
| --- | --- | --- | --- | --- |
| O=C(O)C1=CC(=C(c2ccc(O)c(C(=O)O)c2)c2ccc(O)c(C(=O)O)c2)C=CC1=O [ATA] | lone exception | – | – | – |
| Cc1ccc(-c2cc(C(=O)Nc3nnc(-c4ccncc4)s3)c3ccccc3n2)o1 [MN132, 2-(5-methylfuran-2-yl)-N-(5-(pyridin-4-yl)-1,3,4-thiadiazol-2-yl)quinoline-4-carboxamide] | – | inhibit A3 DNA deaminase activity in vitro | higher | dose dependent increases |
